Reference: US8598125B2, “CDCA1 peptide and pharmaceutical agent comprising the same” (Onco Therapy Science, Inc., priority 2007, dated 2013)
Where no end group is shown, it is not given here.

Legend:
Format in all cases: cell-based
[1] = tested on: A549 cells (CDCA1+, HLA-2−); assay: 51Cr release assay of peptide-induced human CTLs against A549; conditions: No. 1: cancer patient donor 1 CTLs; No. 4: healthy donor 1 CTLs
Text: (§1) Monocyte-derived DC cells were used as antigen-presenting cells for induction of CTLs in response to HLA-presented peptides. DCs were obtained by previously reported in vitro methods (Suda T, et al. Cancer Sci. 2007; Nakahara S, et al. Cancer Res. 2003; 63:4112-8). Briefly, peripheral blood […] (PBMCs) isolated from HLA-A*0201 positive healthy volunteers and NSCLC patients using a Ficoll-Paque solution (GE Healthcare UK, Ltd., Buckinghamshire, UK) were screened for […] CD14 positive populations using MicroBeads (Miltenyi Biotec, Bergisch Gladbach, Germany). […] Six days after the third peptide stimulation on day 25, the antigen-specific CTL response was evaluated by Chromium (Cr) release assay and IFN-γ ELISPOT assay.
(§2) CTLs were co-cultured at various effector cell/target cell ratios with target cells which are various cancer cell lines and T2 cells with or without peptide pulsing, and ^51Cr release assay and IFN-γ ELISPOT assay were conducted using conventional methods (Komori H, et al., Clin. Cancer Res. 2006; 12:2689-2697; Makita M, et al. Clin. Cancer Res. 2002; 8:2626-31; Yokomine K, et al. Cancer Sci. 2007; 98:1930-5). […] Six hours after incubation, 50 μL of the supernatant was collected from each well, and radioactivity was quantified using a gamma counter. […]

peptide-pulsed T2 cells = assay: 51Cr release assay of peptide-induced human CTLs against peptide-pulsed T2 cells; conditions: CTLs from cancer patient donor 1 and healthy donor 1
Text: as §1, §2

[2] = tested on: PANC1 cells (CDCA1+, HLA-A2+); assay: 51Cr release assay of peptide-induced human CTLs against PANC1; conditions: No. 1: cancer patient donor 1 CTLs; No. 4: healthy donor 1 CTLs
Text: as §1, §2

[3] = tested on: COLO201 cells (CDCA1−, HLA-A2+); assay: 51Cr release assay of peptide-induced human CTLs against COLO201; conditions: cancer patient donor 1 CTLs
Text: as §1, §2

| Sequence | cytotoxic activity against A549 cells [1] | cytotoxic activity against peptide-pulsed T2 cells (peptide-pulsed T2 cells) | cytotoxic activity against PANC1 cells [2] | cytotoxic activity against COLO201 cells [3] |
| --- | --- | --- | --- | --- |
| KLATAQFKI [No. 4, KLATAQFKI] | not | showed cytotoxic activity | showed cytotoxic activity | – |
| YMMPVNSEV [No. 1, YMMPVNSEV] | not | showed cytotoxic activity | showed cytotoxic activity | not |
